Experimental data from US7973075B2, “Kainate receptor-selective epimeric analogs of dysiherbaine” (priority 2007, dated 2011).
Entries after “also recorded” stand apart in the source; their conditions may differ. Read-outs that look alike come from different tables or passages of the source.

Legend:
GluR5-2a = target: T1, GluR5-2a (Rattus norvegicus, UniProt P22756, DEL402-416); assay: Whole-cell patch clamp recordings, transfected HEK-293-T/17 cells, Example 2; assay type: cell-based; settings: for time constant for recovery of glutamate-evoked currents, τ: after 2.5 min application of 30 μM analog; for agonist activity: analog-evoked currents from GluR5-2a receptors (words): 1 s test application of the analog at a high concentration (10-100 μM); for inhibition of glutamate-evoked current, GluR5-2a: pre-application of 1 μM analog, 10 mM glutamate; for recovery of glutamate-evoked currents after analog application, GluR5-2a: 30 μM analog
T1 construct: expressed in transfected cells; host or cells: HEK-293-T/17
T1 sequence (P22756 with tags, fused parts or gaps isoform P22756-2 limits assumed, stated change not applied): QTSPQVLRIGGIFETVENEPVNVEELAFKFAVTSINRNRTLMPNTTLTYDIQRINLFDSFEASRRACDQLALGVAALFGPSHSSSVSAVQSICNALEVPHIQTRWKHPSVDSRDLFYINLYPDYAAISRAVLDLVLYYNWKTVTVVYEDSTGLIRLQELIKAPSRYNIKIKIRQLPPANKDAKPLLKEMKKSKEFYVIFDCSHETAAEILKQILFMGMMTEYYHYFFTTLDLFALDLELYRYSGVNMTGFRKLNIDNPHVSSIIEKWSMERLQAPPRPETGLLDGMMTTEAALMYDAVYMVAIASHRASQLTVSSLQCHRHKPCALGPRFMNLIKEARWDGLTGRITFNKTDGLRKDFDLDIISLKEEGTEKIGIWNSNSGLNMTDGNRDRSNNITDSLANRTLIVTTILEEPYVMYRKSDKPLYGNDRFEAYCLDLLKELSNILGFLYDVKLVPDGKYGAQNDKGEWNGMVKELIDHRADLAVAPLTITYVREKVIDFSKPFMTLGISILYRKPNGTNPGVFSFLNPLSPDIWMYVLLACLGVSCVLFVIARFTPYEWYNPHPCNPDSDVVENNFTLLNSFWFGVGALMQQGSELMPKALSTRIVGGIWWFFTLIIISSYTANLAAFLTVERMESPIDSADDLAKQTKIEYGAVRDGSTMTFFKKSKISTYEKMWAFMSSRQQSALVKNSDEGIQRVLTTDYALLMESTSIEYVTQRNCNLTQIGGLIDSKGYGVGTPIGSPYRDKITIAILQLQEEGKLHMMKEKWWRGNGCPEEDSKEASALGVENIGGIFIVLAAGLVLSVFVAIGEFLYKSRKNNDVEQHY
Method: Cell Culture and Electrophysiology. HEK-293-T/17 cells were maintained in Dulbecco's modified Eagle's medium (DMEM) supplemented with 100 μg/mL penicillin, 100 μg/mL streptomycin, and 10% heat inactivated fetal bovine serum. One day before transfection, HEK-T/17 cells were plated at low density on glass coverslips coated with 100 μg/ml poly-D-lysine and 100 μg/ml collagen. Cells were transfected with receptor cDNAs ([…]) in combination with enhanced green fluorescent protein (eGFP) cDNA for visualization of transfected cells. Transfections were carried out with Fugene6 (Roche Applied Science) according to the manufacturer's protocol and used 2-3 days following transfection. Internal solution consisted of 110 mM CsF, 30 mM CsCl, 4 mM NaCl, 0.5 mM CaCl2, 10 mM HEPES, and 5 mM EGTA, and was adjusted to pH=7.3 with CsOH. The external solution contained 150 mM NaCl, 2.8 mM KCI, 2 mM CaCl2, 1 mM MgCl2, and 10 mM HEPES, adjusted to pH=7.3 with NaOH. Patch electrodes from thick-walled borosilicate glass (Warner Instruments, Hamden, Conn.) were pulled to a final resistance of 1.5 to 2.5 MO after fire polishing. […] To determine the pre-desensitization IC50 of selected analogs, several control glutamate (10 mM) applications were followed by a 2.5 minute application of various concentrations of 8-deoxy-neoDH, 9-deoxy-neoDH, or MSVIII-19, after which the analogs were co-applied with glutamate. A similar protocol was followed to measure the recovery of glutamate-evoked currents, with the exception that the analogs were not co-applied with glutamate. Whole cell patch clamp recordings were carried out using an Axopatch 200B amplifier (Axon Instruments). Data were analyzed with Origin 7.5 (OriginLab Corp.), and Prism4 (GraphPad Software Inc.); inhibition-response curves were plotted and fit with a one-site competition curve constrained to fixed minima (0) and maxima (100).
Because neoDH and its natural analog, dysiherbaine (DH), both act as KAR agonists, we tested each of the analogs for agonist activity using whole-cell patch clamp recordings. Application of saturating concentrations of glutamate (10 mM) to a transiently transfected HEK-293-T/17 cell was first done to obtain a rapidly activating and desensitizing control current; this was then followed by a test application of the analog at a high concentration (10-100 μM).
9-deoxy-neoDH and the di-deoxy antagonist, MSVIII-19, have very similar binding profiles on GluR5-2a and other subunits (Sanders et al., 2005), but both their functional activities and behavioral properties differ. 9-deoxy-neoDH elicits small but reproducible currents from GluR5-2a receptors (FIG. 8B), whereas MSVIII-19 behaves as an antagonist (Sanders et al., 2005). To further compare the activity of these compounds and the high-affinity agonist 8-deoxy-neoDH on GluR5-2a receptors, we determined their respective IC50s for pre-desensitization of the receptor (FIG. 9). Responses to 10 mM glutamate were elicited to determine the control current amplitudes for GluR5-2a expressing cells; receptors were then pre-desensitized with low concentrations of the analog (8-deoxy-neoDH or 9-deoxy-neoDH) before test co-applications with glutamate.
Several analogs, including the parent compounds DH and neoDH, induce a very stable, ligand-bound desensitized conformation of GluR5-2a and GluR6a receptors that occludes subsequent activation of the receptors for long periods of time. We measured the duration of the interaction of Group I analogs with GluR5-2a receptors by determining the time course of recovery of glutamate-evoked currents after application of the analogs (for 2.5 min) (FIG. 10). In FIG. 10A, traces on the left are representative control glutamate-evoked currents; traces on the right are glutamate-evoked currents ten minutes after exposure to 8-deoxy-neoDH, 9-deoxy-neoDH, or MSVIII-19 (each at 30 μM). […]

GluR1 = target: T2, GluR1 (Rattus norvegicus, UniProt P19490); assay: Radioligand displacement ([3H]AMPA), Example 1; assay type: binding
T2 construct: expressed in transfected cells; host or cells: COS-7 or HEK-T/17
T2 sequence (P19490 19-907 isoform P19490-2 limits assumed): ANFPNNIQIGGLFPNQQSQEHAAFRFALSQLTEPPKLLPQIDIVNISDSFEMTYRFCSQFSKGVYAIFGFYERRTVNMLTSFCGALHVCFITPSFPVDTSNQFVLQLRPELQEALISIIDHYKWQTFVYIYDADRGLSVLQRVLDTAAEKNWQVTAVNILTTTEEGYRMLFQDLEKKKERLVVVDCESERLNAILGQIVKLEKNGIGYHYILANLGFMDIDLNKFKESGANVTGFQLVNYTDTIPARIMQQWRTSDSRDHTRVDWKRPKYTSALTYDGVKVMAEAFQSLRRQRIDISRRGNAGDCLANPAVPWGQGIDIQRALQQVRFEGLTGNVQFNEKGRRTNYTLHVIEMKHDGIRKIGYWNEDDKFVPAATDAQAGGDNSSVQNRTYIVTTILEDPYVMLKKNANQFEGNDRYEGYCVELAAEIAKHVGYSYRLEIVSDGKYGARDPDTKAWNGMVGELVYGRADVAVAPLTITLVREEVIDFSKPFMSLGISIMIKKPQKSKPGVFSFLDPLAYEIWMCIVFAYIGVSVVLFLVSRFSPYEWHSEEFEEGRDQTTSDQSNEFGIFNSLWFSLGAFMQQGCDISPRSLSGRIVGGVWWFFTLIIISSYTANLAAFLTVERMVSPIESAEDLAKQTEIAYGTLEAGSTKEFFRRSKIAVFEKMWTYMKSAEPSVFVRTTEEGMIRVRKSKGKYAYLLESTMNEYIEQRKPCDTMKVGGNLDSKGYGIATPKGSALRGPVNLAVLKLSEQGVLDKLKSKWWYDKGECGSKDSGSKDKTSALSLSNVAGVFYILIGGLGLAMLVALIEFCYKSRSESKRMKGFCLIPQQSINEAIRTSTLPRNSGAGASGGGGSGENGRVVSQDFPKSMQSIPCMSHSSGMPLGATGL
Method: (§1) Dysiherbaine (DH) was used as a template for generating novel KAR ligands. (See FIG. 1.) These included 8-deoxy and 9-deoxy analogs of neodysiherbaine (neoDH). (See FIG. 2.) The binding of these analogs to glutamate receptors was assessed by radioligand binding as follows. Membrane preparations from COS-7 or HEK-T/17 cells were isolated 2-3 days after transfection. Displacement assays were performed as described previously (Swanson et al., NEURON 1997; 19:913-26). Unlabeled marine toxin analogs were used to displace [^3H]kainate or [^3H]AMPA (PerkinElmer) from kainate and AMPA receptors, respectively. (See FIG. 2 and Table 1.)
(§2) Non-specific binding was defined in the presence of 1 mM glutamate. The effect of these analogs on electrophysiology was assessed as follows. HEK 293 cells were transfected with receptor cDNAs in combination with eGFP cDNA. Patch-clamp recordings from transfected cells were made 24-72 hours later using a fast application system described previously (Swanson et al., NEURON 1997; 19:913-26). (See FIG. 3.)
(§3) Additional epimer analogs were generated. These included 4-epi-neodysiherbaine, 8-epi-neodysiherbaine, 9-epi-neodysiherbaine, and 8,9-epi-neodysiherbaine. (See FIG. 4.) The binding of these analogs to glutamate receptors was assessed by radioligand binding as described above. (See FIG. 4 and Table 2.)

GluR2 = target: T3, GluR2 (Rattus norvegicus, UniProt P19491); assay: Radioligand displacement ([3H]AMPA), Example 1; assay type: binding
T3 construct: expressed in transfected cells; host or cells: COS-7 or HEK-T/17
T3 sequence (P19491 22-883 isoform P19491-2 limits assumed): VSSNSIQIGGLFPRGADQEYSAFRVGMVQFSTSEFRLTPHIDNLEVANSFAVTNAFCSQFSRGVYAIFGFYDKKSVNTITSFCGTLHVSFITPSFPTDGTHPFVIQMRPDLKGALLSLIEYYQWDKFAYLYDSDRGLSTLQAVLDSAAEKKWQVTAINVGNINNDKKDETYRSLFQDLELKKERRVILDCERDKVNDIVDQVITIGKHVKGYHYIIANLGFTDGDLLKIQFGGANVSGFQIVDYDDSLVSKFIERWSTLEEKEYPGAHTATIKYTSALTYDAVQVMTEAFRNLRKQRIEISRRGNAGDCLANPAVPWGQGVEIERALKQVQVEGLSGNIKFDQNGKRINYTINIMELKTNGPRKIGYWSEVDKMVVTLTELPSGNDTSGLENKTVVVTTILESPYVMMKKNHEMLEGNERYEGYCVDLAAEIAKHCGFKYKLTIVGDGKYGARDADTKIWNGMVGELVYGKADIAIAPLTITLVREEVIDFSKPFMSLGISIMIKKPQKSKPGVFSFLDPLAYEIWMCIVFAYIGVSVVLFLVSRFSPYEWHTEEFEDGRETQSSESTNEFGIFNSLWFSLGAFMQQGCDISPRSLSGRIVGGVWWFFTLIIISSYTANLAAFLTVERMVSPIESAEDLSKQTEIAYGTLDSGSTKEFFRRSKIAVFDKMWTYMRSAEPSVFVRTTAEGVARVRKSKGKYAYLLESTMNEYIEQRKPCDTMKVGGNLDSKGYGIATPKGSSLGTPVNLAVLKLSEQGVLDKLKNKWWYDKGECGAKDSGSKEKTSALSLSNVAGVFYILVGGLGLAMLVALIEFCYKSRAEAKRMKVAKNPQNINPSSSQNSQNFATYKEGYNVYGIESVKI
Method: as §1, §2, §3

GluR5 = target: T4, GluR5 (Rattus norvegicus, UniProt P22756); assay: Patch-clamp recordings from transfected HEK 293 cells, Example 1; assay type: cell-based; settings: Example 1, FIG. 3 and 5
T4 construct: expressed in transfected cells; HEK 293 (patch clamp)
T4 sequence (P22756 with tags, fused parts or gaps isoform P22756-2): as the sequence (P22756 with tags, fused parts or gaps isoform P22756-2 limits assumed, stated change not applied) above
Method: as §2
The effect of these analogs on electrophysiology also was assessed as described above. […] The results further indicate that the C8 and C9 substituents are necessary for binding to all AMPA and KAR subunits except for GluR5 subunits. The C9 polar group must be present and in the correct spatial orientation for high-affinity GluR5 subunit binding. Inter-domain contacts mediated by residue 721S are critical determinants of binding affinity. The epimer analog 9-deoxy-neoDH mimics the binding affinity of the di-deoxy analog MSVIII-19, but acts as an agonist rather than an antagonist.

[1] = Tables 1-2, read-out: GluR1 binding affinity (displacement of [3H]AMPA)
[2] = Tables 1-2, read-out: GluR2 binding affinity (displacement of [3H]AMPA)

SMILES	Ki (GluR1; [1]) [µM]	Ki (GluR2; [2]) [µM]	agonist or antagonist at GluR5 (electrophysiology) (GluR5)	agonist activity: analog-evoked currents from GluR5-2a receptors (words) (GluR5-2a)	recovery of glutamate-evoked currents after analog application, GluR5-2a (GluR5-2a)	other results
N[C@@H](C[C@]1(C(=O)O)C[C@H]2OCCC[C@H]2O1)C(=O)O [MSVIII-19, 8,9-dideoxy-neoDH]						time constant for recovery of glutamate-evoked currents, τ (GluR5-2a): 1.4 s
NC(CC1(C(=O)O)CC2OCC(O)C(O)C2O1)C(=O)O (stereo not drawn) [8-epi-neoDH, 8-epi-neodysiherbaine]	17	23	GluR5 agonist	elicited rapidly activating currents		agonist activity: analog-evoked currents from GluR5-2a receptors (words) (GluR5-2a; listed as 8-epineoDH): elicited large desensitizing currents with variable kinetics
N[C@@H](C[C@]1(C(=O)O)C[C@H]2OCC[C@@H](O)[C@H]2O1)C(=O)O [9-deoxy-neoDH]	> 100	> 100	GluR5 agonists	elicited currents; also recorded: very weak agonist; also recorded: GluR5 agonists		IC50 (GluR5-2a; 2.5 min analog application, then co-application with 10 mM glutamate, read-out: IC50 for pre-desensitization of GluR5-2a receptors): 0.151 µM; time constant for recovery of glutamate-evoked currents, τ (GluR5-2a): 1.5 s; inhibition of glutamate-evoked current, GluR5-2a (GluR5-2a): inhibited but did not abolish
N[C@@H](C[C@@]1(C(=O)O)CC2OCC(O)C(O)C2O1)C(=O)O (single isomer, unassigned) [4-epi-neoDH, 4-epi-neodysiherbaine]			GluR5/GluR6 antagonist	evoked small but detectable currents; also recorded: elicits large currents; also recorded: activates	remained associated with the GluR5-2a receptor for many minutes	
NC(CC1(C(=O)O)CC2OCC(O)C(O)C2O1)C(=O)O (stereo not drawn) [9-epi-neoDH, 9-epi-neodysiherbaine]	> 100	> 100		elicited rapidly activating currents; also recorded: elicited very small amplitude, weakly desensitizing currents; also recorded: very weak partial agonists		
NC(CC1(C(=O)O)CC2OCC(O)C(O)C2O1)C(=O)O (stereo not drawn) [8,9-epi-neoDH, 8,9-epi-neodysiherbaine]	> 100	> 100	GluR5 antagonist	failed to activate GluR5-2a-expressing cells		agonist activity: analog-evoked currents from GluR5-2a receptors (words) (GluR5-2a; listed as 8,9epi-neoDH): failed to elicit a detectable current; inhibition of glutamate-evoked currents in GluR5-2a-expressing cells (GluR5-2a; high test concentrations, data not shown): modestly inhibited
N[C@@H](C[C@@]1(C(=O)O)CC2OCC(O)C(O)C2O1)C(=O)O (single isomer, unassigned) [2,4-epi-neoDH, 2,4-epi-neodysiherbaine]				failed to elicit detectable current; also recorded: antagonist (or possibly a very weak partial agonist); also recorded: fails to activate GluR5 or GluR6 receptors, even at 100 μM	remained associated with the GluR5-2a receptor for many minutes	IC50 (GluR5-2a; 10 mM glutamate in continued presence of analog, read-out: IC50 inhibition of glutamate-evoked currents, GluR5-2a): 7.5 µM; agonist activity: analog-evoked currents from GluR5-2a receptors (words) (GluR5-2a; listed as 2,4-epineoDH): fails to activate
N[C@@H](C[C@]1(C(=O)O)C[C@H]2OC[C@@H](O)C[C@H]2O1)C(=O)O [8-deoxy-neoDH]			GluR5 agonists	elicited currents; also recorded: full agonist, or a highly efficacious partial agonist; also recorded: full agonists or highly efficacious partial agonists; also recorded: GluR5 agonists	completely attenuated glutamate currents in response to glutamate for up to 15 min; also recorded: remained associated beyond the duration of the experiments	Ki (GluR1): > 100 µM; Ki (GluR2): > 100 µM; IC50 (GluR5-2a): 0.000238 µM; inhibition of glutamate-evoked current, GluR5-2a (GluR5-2a): completely inhibited
NC(CC1(C(=O)O)CC2OCC(F)C(O)C2O1)C(=O)O (stereo not drawn) [9-F-8-epi-neoDH]				elicited rapidly activating currents; also recorded: elicited large desensitizing currents with variable kinetics		
